Laboratory results published in patent US8455522B2, “Benzoxazolone derivatives as aldosterone synthase inhibitors” (Novartis AG, priority 2009, dated 2013).

Tests used:
aldosterone synthase = target: T1, aldosterone synthase (Homo sapiens, UniProt P19099); assay: Aldosterone cell secretion in NCI-H295R cells (aldosterone synthase inhibition, SPA); assay type: cell-based; conditions: human adrenocortical carcinoma NCI-H295R cells, 1 μM Ang II, 24 hr
T1 construct: host or cells: NCI-H295R
T1 sequence (P19099 25-503): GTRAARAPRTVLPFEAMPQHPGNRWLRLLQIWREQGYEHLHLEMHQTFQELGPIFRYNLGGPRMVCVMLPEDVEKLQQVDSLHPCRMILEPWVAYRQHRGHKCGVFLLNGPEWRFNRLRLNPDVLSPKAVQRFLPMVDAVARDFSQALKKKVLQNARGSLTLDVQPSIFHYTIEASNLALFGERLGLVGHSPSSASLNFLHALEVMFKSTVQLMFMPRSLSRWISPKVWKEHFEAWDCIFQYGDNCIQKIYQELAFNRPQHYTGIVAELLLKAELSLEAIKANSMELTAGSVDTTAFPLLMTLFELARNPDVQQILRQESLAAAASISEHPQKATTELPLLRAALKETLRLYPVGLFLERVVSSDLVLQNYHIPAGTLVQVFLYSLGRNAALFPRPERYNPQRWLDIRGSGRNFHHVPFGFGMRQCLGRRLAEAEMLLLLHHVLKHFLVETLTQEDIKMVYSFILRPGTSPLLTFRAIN
Text: In particular, the aldosterone synthase inhibitory activities in vitro can be determined by the following assay.
Human adrenocortical carcinoma NCI-H295R cell line was obtained from American Type Culture Collection (Manassas, Va.). Insulin/transferrin/selenium (ITS)-A supplement (100×). DMEM/F-12, antibiotic/antimycotic (100×), and fetal bovine serum (FBS) were purchased from Invitrogen (Carlsbad, Calif.). Anti-mouse PVT scintillation proximity assay (SPA) beads and NBS 96-well plates were obtained from GE Health Sciences (Piscataway, N.J.) and Corning (Acton, Mass.), respectively. Solid black 96-well flat bottom plates were purchased from Costar (Corning, N.Y.). Aldosterone and angiotensin (Ang II) were purchased from Sigma (St. Louis, Mo.). D-[1,2,6,7-^3H(N)]aldosterone was acquired from PerkinElmer (Boston, Mass.). Nu-serum was a product of BD Biosciences (Franklin Lakes, N.J.). The NADPH regenerating system, dibenzylfluorescein (DBF), and human aromatase Supersomes® were obtained from Gentest (Woburn, Mass.).
For in vitro measurement of aldosterone activity, human adrenocortical carcinoma NCI-H295R cells are seeded in NBS 96-well plates at a density of 25,000 cells/well in 100 μl of a growth medium containing DMEM/F12 supplemented with 10% FCS, 2.5% Nu-serum, 1 μg ITS/ml, and 1× antibiotic/antimycotic. The medium is changed after culturing for 3 days at 37° C. under an atmosphere of 5% CO2/95% air. On the following day, cells are rinsed with 100 μl of phosphate-buffered saline (PBS) and incubated with 100 μl of treatment medium containing 1 μM Ang II and a compound at different concentrations in quadruplicate wells at 37° C. for 24 hr. At the end of incubation, 50 μl of medium is withdrawn from each well for measurement of aldosterone production by an SPA using mouse anti-aldosterone monoclonal antibodies.
Measurement of aldosterone activity can also be performed using a 96-well plate format. Each test sample is incubated with 0.02 μCi of D-[1,2,6,7-^3H(N)]aldosterone and 0.3 μg of anti-aldosterone antibody in PBS containing 0.1% Triton X-100, 0.1% bovine serum albumin, and 12% glycerol in a total volume of 200 μl at room temperature for 1 hr. Anti-mouse PVT SPA beads (50 μl) are then added to each well and incubated overnight at room temperature prior to counting in a Microbeta plate counter. The amount of aldosterone in each sample is calculated by comparing with a standard curve generated using known quantities of the hormone.
(§1) Inhibition of the release of certain steroids can be used as a measure of the respective enzyme inhibition by the added test compounds. The dose-dependent inhibition of enzymic activity by a compound is calculated by means of an inhibition plot which is characterized by an IC50.
The IC50 values for active test compounds are ascertained by a simple linear regression analysis in order to construct inhibition plots without data weighting. The inhibition plot is calculated by fitting a 4-parameter logistic function to the raw data points using the least squares method. The equation of the 4-parameter logistic function is calculated as follows: Y=(d−a)/((1+(x/c)b))+a, where: a=minimum data level, b=gradient, I […], d=maximum data level, x=inhibitor concentration.
The inhibition activity of aldosterone production can also be expressed in percentage inhibition (% inhibition) at a given concentration (e.g. % inhibition at 1 μM), which is the aldosterone level when the cell is treated with the given concentration of a compound of this invention (e.g. concentration of 1 μM) versus the aldosterone excretion when cell is free of the compound of the invention: % inhibition aldosterone production=[(Y−X)/Y]×100 wherein X is the level of aldosterone when the cell is treated with a compound of Formula I; and Y is the level of aldosterone when the cell is free of compound of Formula I.

CYP11B1 = target: T2, CYP11B1 (Homo sapiens, UniProt P15538); assay: Cortisol cell secretion in NCI-H295R cells (CYP11B1 activity); assay type: cell-based; conditions: NCI-H295R, compound at 1 μM, read-out: Cortisol cell secretion (% Inhib. @ 1 μM)
T2 construct: the NCI-H295R cells have Cyp11 B1 (steroid 11 β-hydroxylase); host or cells: NCI-H295R
T2 sequence (P15538 25-503): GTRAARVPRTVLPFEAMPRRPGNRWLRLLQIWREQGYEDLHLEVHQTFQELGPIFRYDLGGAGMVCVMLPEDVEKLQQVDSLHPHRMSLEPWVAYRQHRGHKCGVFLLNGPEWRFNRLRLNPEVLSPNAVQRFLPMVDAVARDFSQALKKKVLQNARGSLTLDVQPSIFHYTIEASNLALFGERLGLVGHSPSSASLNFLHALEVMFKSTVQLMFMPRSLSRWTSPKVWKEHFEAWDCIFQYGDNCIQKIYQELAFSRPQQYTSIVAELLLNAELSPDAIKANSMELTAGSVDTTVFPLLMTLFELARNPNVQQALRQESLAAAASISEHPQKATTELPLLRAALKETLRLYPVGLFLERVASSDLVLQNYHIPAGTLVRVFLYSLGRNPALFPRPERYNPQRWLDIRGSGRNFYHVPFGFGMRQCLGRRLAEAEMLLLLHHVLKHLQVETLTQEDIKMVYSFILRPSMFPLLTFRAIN
Text: The in vitro inhibitory activities for CYP1B1 can be determined by the following assay.
The cell line NCI-H295R was originally isolated from an adrenocortical carcinoma and has been characterized in the literature through the stimulable secretion of steroid hormones and the presence of the enzymes essential for steroidogenesis. Thus, the NCI-H295R cells have Cyp11 B1 (steroid 11 β-hydroxylase). The cells show the physiological property of zonally undifferentiated human foetal adrenocortical cells which, however, have the capacity to produce the steroid hormones which are formed in the three, phenotypically distinguishable zones in the adult adrenal cortex.
The NCI-H295R cells (American Type Culture Collection, ATCC, Rockville, Md., USA) are grown in Dulbeoco's Modified Eagle'Ham F-12 Medium (DME/F12), which has been supplemented with Ulroser SF Serum (Soprachem, Geigy-Saint-Christophe, France), insulin, transferrin, selenite (I-T-S, Becton Dickinson Biosiences, Franklin lakes. NJ, USA) and antibiotics in 75 cm^2 cell culture vessels at 37° C. and in a 95% air-5% carbon dioxide atmosphere. The cells are subsequently transferred for colony formation into a 24-well incubation vessel. They are cultivated there in DME/F12 medium, which is now supplemented with 0.1% bovine serum instead of Ultroser SF for 24 hours. The experiment is initiated by cultivating the cells in DME/F12 medium which is supplemented with 0.1% bovine serum albumin and test compound, in the presence or absence of cell stimulants, for 72 hours. The test substance is added in a concentration range from 0.2 nanomolar to […]. Cell stimulants which can be used are angiotensin II (1 D or 100 nanomolar), potassium ions (16 millimolar), forskolin (10 micromolar) or a combination of two stimulants.
The excretion of aldosterone, cortisol, corticosterone and estradiol/estrone into the culture medium can be detected and quantified by commercially available, specific monoclonal antibodies in radioimmunoassays in accordance with the manufacturer's instructions.
as §1
The inhibition activity of cortisol production (CYP11B1 activity) can also be expressed in percentage inhibition (% inhibition) at a given concentration (e.g. % inhibition at 1 μM), which is the cortisol level when cell is treated with the given concentration of a compound of the invention (e.g. concentration of 1 μM) versus the cortisol excretion when cell is free of the compound of the invention. % inhibition cortisol production=[(Y′−X′)/Y′]×100 wherein X′ is the level of cortisol when the cell is treated with a compound of Formula I; and Y′ is the level of cortisol when the cell is free of compound of Formula I.

IC50 (aldosterone synthase) [nM] | inhibition at 1 µM (CYP11B1) [%] | Structure (SMILES)
1.4 | 95 | Cn1c(=O)oc2ccc(-c3cncc(C(O)C(F)(F)F)c3)cc21 (centres unmarked) [Example 19, 3-methyl-5-(5-(2,2,2-trifluoro-1-hydroxyethyl)pyridin-3-yl)benzo[d]oxazol-2(3H)-one]
68 | 65.5 | CN(c1cncc(-c2ccc3oc(=O)n(C)c3c2)c1)S(=O)(=O)C1CC1 [Example 21, N-methyl-N-(5-(3-methyl-2-oxo-2,3-dihydrobenzo[d]oxazol-5-yl)pyridin-3-yl)cyclopropanesulfonamide]
154 | 30 | CCCS(=O)(=O)Nc1cncc(-c2ccc3oc(=O)n(C)c3c2)c1 [Example 28, N-(5-(3-methyl-2-oxo-2,3-dihydrobenzo[d]oxazol-5-yl)pyridin-3-yl)propane-1-sulfonamide]
144 | 13 | Cn1c(=O)oc2ccc(-c3cncc(F)c3CO)cc21 [Example 36, 5-(5-fluoro-4-(hydroxymethyl)pyridin-3-yl)-3-methylbenzo[d]oxazol-2(3H)-one]
